Assay results published in ChEMBL document CHEMBL1201862, “PubChem BioAssay data set” (2004).
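Where inhibition never reached the appropriate level, the endpoint shown equals the highest concentration tested. Otherwise, values were interpolated linearly from a five-concentration, 48-hour dose response in 96-well plates. GI50 = concentration required for 50% inhibition of growth.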 Activity calls are given as the source filed them. Rule as the data show it: active = GI50 up to about 1.1 µM and inactive = higher.

Assays:
Test in all cases: inhibition of tumour cell growth, NCI panel, 48 h
HT-29 = test system: HT-29
OVCAR-5 = test system: OVCAR-5
Malme-3M = test system: Malme-3M
K562 = test system: K562
SW-620 = test system: SW-620
SF-295 = test system: SF-295
KM12 = test system: KM12
MOLT-4 = test system: MOLT-4
MDA-MB-231 = test system: MDA-MB-231
MCF7 = test system: MCF7
T47D = test system: T47D
HOP-62 = test system: HOP-62
OVCAR-3 = test system: OVCAR-3
NCI-H226 = test system: NCI-H226
M14 = test system: M14
BT-549 = test system: BT-549
UACC-257 = test system: UACC-257
SNB-75 = test system: SNB-75
NCI/ADR-RES = test system: NCI/ADR-RES
HCC 2998 = test system: HCC 2998
HCT-15 = test system: HCT-15
LOX IMVI = test system: LOX IMVI
A498 = test system: A498
UACC-62 = test system: UACC-62
HCT-116 = test system: HCT-116
OVCAR-8 = test system: OVCAR-8
MDA-MB-435 = test system: MDA-MB-435
SF-539 = test system: SF-539
U-251 = test system: U-251
CAKI-1 = test system: CAKI-1
SR = test system: SR
CCRF-CEM = test system: CCRF-CEM
HOP-92 = test system: HOP-92
OVCAR-4 = test system: OVCAR-4
SNB-19 = test system: SNB-19
SN12C = test system: SN12C
HL-60 = test system: HL-60
Hs-578T = test system: Hs-578T
SK-OV-3 = test system: SK-OV-3
786-0 = test system: 786-0
IGROV-1 = test system: IGROV-1
NCI-H460 = test system: NCI-H460
NCI-H522 = test system: NCI-H522
RPMI-8226 = test system: RPMI-8226
A549 = test system: A549
RXF 393 = test system: RXF 393
MDA-N = test system: MDA-N
UO-31 = test system: UO-31
PC-3 = test system: PC-3
SF-268 = test system: SF-268
SK-MEL-2 = test system: SK-MEL-2
TK-10 = test system: TK-10
ACHN = test system: ACHN
SK-MEL-5 = test system: SK-MEL-5
EKVX = test system: EKVX
SK-MEL-28 = test system: SK-MEL-28
COLO 205 = test system: COLO 205
NCI-H23 = test system: NCI-H23
DU-145 = test system: DU-145

COC(=O)C(=O)C(C(=O)C(=O)Nc1ccccc1OC)c1nc2ccc([N+](=O)[O-])cc2nc1O (centres undefined)
GI50 (HT-29): > 100 µM (inactive)
GI50 (OVCAR-5): > 100 µM (inactive)
GI50 (Malme-3M): 83 µM (inactive)
GI50 (K562): > 100 µM (inactive)
GI50 (SW-620): > 100 µM (inactive)
GI50 (SF-295): > 100 µM (inactive)
GI50 (KM12): 54.3 µM (inactive)
GI50 (MOLT-4): > 100 µM (inactive)
GI50 (MDA-MB-231): > 100 µM (inactive)
GI50 (MCF7): > 100 µM (inactive)
GI50 (T47D): > 100 µM (inactive)
GI50 (HOP-62): > 100 µM (inactive)
GI50 (OVCAR-3): > 100 µM (inactive)
GI50 (NCI-H226): > 100 µM (inactive)
GI50 (M14): > 100 µM (inactive)
GI50 (BT-549): > 100 µM (inactive)
GI50 (UACC-257): > 100 µM (inactive)
GI50 (SNB-75): > 100 µM (inactive)
GI50 (NCI/ADR-RES): > 100 µM (inactive)
GI50 (HCC 2998): > 100 µM (inactive)
GI50 (HCT-15): 41.4 µM
GI50 (LOX IMVI): 96.2 µM (inactive)
GI50 (A498): > 100 µM (inactive)
GI50 (UACC-62): > 100 µM (inactive)
GI50 (HCT-116): > 100 µM (inactive)
GI50 (OVCAR-8): > 100 µM (inactive)
GI50 (MDA-MB-435): 35.6 µM (inactive)
GI50 (SF-539): > 100 µM (inactive)
GI50 (U-251): > 100 µM (inactive)
GI50 (CAKI-1): > 100 µM (inactive)
GI50 (SR): > 100 µM (inactive)
GI50 (CCRF-CEM): > 100 µM (inactive)
GI50 (HOP-92): > 100 µM (inactive)
GI50 (OVCAR-4): 83.8 µM (inactive)
GI50 (SNB-19): 23.2 µM (inactive)
GI50 (SN12C): > 100 µM (inactive)
GI50 (HL-60): > 100 µM (inactive)
GI50 (Hs-578T): 78.2 µM (inactive)
GI50 (SK-OV-3): > 100 µM (inactive)
GI50 (786-0): > 100 µM (inactive)
GI50 (IGROV-1): 54.8 µM (inactive)
GI50 (NCI-H460): 58.2 µM (inactive)
GI50 (NCI-H522): 65.2 µM (inactive)
GI50 (RPMI-8226): > 100 µM (inactive)
GI50 (A549): > 100 µM (inactive)
GI50 (RXF 393): > 100 µM (inactive)
GI50 (MDA-N): 32.7 µM (inactive)
GI50 (UO-31): 45.3 µM (inactive)
GI50 (PC-3): > 100 µM (inactive)
GI50 (SF-268): > 100 µM (inactive)
GI50 (SK-MEL-2): > 100 µM (inactive)
GI50 (TK-10): > 100 µM (inactive)
GI50 (ACHN): > 100 µM (inactive)
GI50 (SK-MEL-5): > 100 µM (inactive)
GI50 (EKVX): 45.5 µM (inactive)
GI50 (SK-MEL-28): > 100 µM (inactive)

COc1c(CC=C(C)C)c(O)c(C(CC(C)C)c2c(O)c(C(C)=O)c(O)c3c2OC(C(C)(C)O)C3)c(O)c1C(C)=O (centres undefined) [ACROFOLIONE A]
GI50 (HT-29): 4.71 µM (inactive)
GI50 (OVCAR-5): 5.38 µM (inactive)
GI50 (Malme-3M): 3.81 µM (inactive)
GI50 (K562): 2.13 µM (inactive)
GI50 (SW-620): 6.25 µM (inactive)
GI50 (MOLT-4): 3.4 µM (inactive)
GI50 (MCF7): 4.26 µM (inactive)
GI50 (T47D): 3.21 µM (inactive)
GI50 (OVCAR-3): 5.42 µM (inactive)
GI50 (NCI-H226): 5.69 µM (inactive)
GI50 (M14): 5.56 µM (inactive)
GI50 (BT-549): 3.27 µM (inactive)
GI50 (UACC-257): 3.2 µM (inactive)
GI50 (NCI/ADR-RES): 3.82 µM (inactive)
GI50 (HCC 2998): 4.46 µM (inactive)
GI50 (HCT-15): 3.86 µM
GI50 (COLO 205): 4.46 µM (inactive)
GI50 (LOX IMVI): 4.38 µM (inactive)
GI50 (A498): 3.83 µM (inactive)
GI50 (UACC-62): 5.26 µM (inactive)
GI50 (HCT-116): 3.68 µM (inactive)
GI50 (NCI-H23): 3.75 µM (inactive)
GI50 (OVCAR-8): 4.12 µM (inactive)
GI50 (MDA-MB-435): 4.86 µM (inactive)
GI50 (SF-539): 4.93 µM (inactive)
GI50 (DU-145): 4.71 µM (inactive)
GI50 (CAKI-1): 3.59 µM (inactive)
GI50 (SR): 2.82 µM (inactive)
GI50 (CCRF-CEM): 5.36 µM (inactive)
GI50 (HOP-92): 1.85 µM (inactive)
GI50 (OVCAR-4): 5.68 µM (inactive)
GI50 (SNB-19): 7.33 µM (inactive)
GI50 (SN12C): 3.84 µM (inactive)
GI50 (HL-60): 1.97 µM (inactive)
GI50 (Hs-578T): 7.74 µM (inactive)
GI50 (786-0): 4.89 µM (inactive)
GI50 (IGROV-1): 3.65 µM (inactive)
GI50 (NCI-H460): 4.13 µM (inactive)
GI50 (NCI-H522): 3.39 µM (inactive)
GI50 (A549): 7.96 µM (inactive)
GI50 (RXF 393): 2.88 µM (inactive)
GI50 (MDA-N): 4.29 µM (inactive)
GI50 (UO-31): 4.16 µM (inactive)
GI50 (SF-268): 5.33 µM (inactive)
GI50 (ACHN): 4.31 µM (inactive)
GI50 (SK-MEL-5): 3.41 µM (inactive)
GI50 (EKVX): 4.51 µM (inactive)
GI50 (SK-MEL-28): 9.18 µM (inactive)
